Assay results as given in paper PMC4846820, “A single active catalytic site is sufficient to promote transport in P-glycoprotein” (Scientific Reports, 2016).
pKd: −log10 of the molar value. Where “and” joins values, the source holds several entries; their conditions need not be identical. Equal entries are not always repeated. Where two headings read alike, the source gives them in different places. Values belong to the molecule of their own block, whether it stands above or below them.

Key:
Wild-type Pgp [1] = biological target: T1, Wild-type Pgp (Homo sapiens, UniProt P08183); test: VBL-BPY binding in permeabilized NIH 3T3 cells (confocal microscopy); settings: 5 mM AMP-PNP
T1 sequence (P08183 whole entry): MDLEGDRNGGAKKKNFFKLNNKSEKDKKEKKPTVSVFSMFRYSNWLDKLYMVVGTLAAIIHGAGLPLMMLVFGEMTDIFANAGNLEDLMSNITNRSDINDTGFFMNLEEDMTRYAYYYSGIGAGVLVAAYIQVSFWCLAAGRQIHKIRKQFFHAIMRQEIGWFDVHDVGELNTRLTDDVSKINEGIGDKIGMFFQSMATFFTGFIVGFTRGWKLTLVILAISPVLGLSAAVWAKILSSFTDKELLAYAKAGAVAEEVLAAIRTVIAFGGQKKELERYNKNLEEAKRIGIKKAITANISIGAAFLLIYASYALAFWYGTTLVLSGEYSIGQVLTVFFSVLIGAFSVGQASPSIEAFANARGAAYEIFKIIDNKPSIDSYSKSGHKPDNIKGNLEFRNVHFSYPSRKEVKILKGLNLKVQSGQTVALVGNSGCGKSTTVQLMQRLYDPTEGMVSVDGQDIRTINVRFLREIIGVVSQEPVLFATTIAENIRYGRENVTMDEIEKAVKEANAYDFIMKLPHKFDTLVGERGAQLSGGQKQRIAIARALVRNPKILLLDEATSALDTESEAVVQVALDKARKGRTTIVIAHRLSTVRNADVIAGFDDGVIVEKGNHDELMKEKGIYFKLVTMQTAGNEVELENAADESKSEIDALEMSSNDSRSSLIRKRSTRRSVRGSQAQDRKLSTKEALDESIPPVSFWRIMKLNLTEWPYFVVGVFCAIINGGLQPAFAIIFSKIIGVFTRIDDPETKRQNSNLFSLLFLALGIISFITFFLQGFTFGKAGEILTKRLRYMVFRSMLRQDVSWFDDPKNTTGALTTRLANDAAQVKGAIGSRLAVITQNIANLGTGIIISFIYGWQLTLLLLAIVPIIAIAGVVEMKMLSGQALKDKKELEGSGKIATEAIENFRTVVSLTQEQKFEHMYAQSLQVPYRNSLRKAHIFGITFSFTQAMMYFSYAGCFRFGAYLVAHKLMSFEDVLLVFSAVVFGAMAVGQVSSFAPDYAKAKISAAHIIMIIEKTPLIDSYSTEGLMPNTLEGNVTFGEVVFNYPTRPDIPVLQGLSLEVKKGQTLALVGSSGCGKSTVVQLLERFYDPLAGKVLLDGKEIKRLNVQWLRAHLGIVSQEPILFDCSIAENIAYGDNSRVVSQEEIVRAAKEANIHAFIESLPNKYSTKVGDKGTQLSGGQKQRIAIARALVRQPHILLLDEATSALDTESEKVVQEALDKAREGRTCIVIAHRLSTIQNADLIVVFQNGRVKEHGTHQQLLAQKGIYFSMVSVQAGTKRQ

K433M Pgp = K433M Pgp (Homo sapiens, UniProt P08183, K433M); test: UIC2 mAb labeling of permeabilized cells: apparent affinity of nucleotide binding; settings: 37 °C, Mg2+
Chain of K433M Pgp (P08183 whole entry K433M): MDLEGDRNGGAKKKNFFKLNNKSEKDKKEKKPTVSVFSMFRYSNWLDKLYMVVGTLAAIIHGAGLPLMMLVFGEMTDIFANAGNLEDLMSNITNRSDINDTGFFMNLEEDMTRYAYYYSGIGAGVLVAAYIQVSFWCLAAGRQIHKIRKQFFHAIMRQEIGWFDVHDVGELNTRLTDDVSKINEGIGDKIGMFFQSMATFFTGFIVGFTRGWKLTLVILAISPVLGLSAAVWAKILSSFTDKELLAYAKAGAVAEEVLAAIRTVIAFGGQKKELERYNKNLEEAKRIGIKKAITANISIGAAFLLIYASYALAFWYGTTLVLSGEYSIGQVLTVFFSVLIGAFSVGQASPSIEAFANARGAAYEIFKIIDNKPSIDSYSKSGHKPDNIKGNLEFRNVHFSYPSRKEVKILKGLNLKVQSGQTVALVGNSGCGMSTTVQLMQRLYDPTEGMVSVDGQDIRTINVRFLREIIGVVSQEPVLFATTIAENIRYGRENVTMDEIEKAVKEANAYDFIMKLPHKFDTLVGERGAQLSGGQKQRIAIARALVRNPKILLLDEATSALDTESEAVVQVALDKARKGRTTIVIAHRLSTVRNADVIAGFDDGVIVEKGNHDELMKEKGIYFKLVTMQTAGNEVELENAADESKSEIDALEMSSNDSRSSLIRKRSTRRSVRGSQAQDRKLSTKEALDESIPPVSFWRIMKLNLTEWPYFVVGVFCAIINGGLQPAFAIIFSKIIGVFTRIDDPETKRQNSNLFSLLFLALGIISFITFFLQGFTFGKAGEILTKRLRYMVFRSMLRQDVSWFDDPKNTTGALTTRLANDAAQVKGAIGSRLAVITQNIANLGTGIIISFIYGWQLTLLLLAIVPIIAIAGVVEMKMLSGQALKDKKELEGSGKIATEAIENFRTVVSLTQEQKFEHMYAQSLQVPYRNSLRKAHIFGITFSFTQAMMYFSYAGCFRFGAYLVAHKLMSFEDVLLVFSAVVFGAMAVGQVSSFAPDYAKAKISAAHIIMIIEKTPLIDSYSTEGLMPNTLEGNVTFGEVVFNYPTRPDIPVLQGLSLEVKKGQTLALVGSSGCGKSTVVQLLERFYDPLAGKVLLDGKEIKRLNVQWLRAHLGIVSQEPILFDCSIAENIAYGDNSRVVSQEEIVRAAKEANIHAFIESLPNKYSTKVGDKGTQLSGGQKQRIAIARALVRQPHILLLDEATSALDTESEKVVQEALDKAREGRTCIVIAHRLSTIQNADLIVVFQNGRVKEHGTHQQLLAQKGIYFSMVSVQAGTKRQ
Experimental: (§1) Permeabilized cells (1 × 10^6 ml^−1) were pre-incubated for 20 min with nucleotides added in a broad concentration range and then further incubated for 30 min with 10 μg/ml A647-conjugated UIC2 monoclonal antibody (all at 37 °C). UIC2 mAb binding to Pgp is a reversible reaction in the presence of ATP/Mg^2+ (Supplementary Fig. S6), thus, UIC2 was applied at a quasi-saturating concentration (5Kd;UIC2; Supplementary Fig. S5) and the duration of the incubation period was sufficient to reach equilibrium binding of UIC2 (Supplementary Fig. S6).
(§2) To prevent ATP hydrolysis, ATP was added to permeabilized cells without Mg^2+ in the presence of 5 mM EDTA. Alternatively, ATP was replaced by the non-hydrolysable ATP analogue AMP-PNP/Mg^2+, or the experiment was conducted on ice. […] Following antibody labeling, samples were washed 3 times with ice-cold PBS and centrifuged for 7 min at 635 g at 4 °C. The UIC2-A647 fluorescence intensity of the cells was measured by flow cytometry and plotted as a function of the nucleotide concentration.

Wild-type Pgp [2] = biological target: T1, Wild-type Pgp; test: UIC2 mAb labeling of permeabilized NIH 3T3 cells: apparent affinity of nucleotide binding
Experimental: as §1, §2

K1076M Pgp = K1076M Pgp (Homo sapiens, UniProt P08183, K1076M); test: UIC2 mAb labeling of permeabilized cells: apparent affinity of nucleotide binding; settings: 37 °C, Mg2+
Chain of K1076M Pgp (P08183 whole entry K1076M): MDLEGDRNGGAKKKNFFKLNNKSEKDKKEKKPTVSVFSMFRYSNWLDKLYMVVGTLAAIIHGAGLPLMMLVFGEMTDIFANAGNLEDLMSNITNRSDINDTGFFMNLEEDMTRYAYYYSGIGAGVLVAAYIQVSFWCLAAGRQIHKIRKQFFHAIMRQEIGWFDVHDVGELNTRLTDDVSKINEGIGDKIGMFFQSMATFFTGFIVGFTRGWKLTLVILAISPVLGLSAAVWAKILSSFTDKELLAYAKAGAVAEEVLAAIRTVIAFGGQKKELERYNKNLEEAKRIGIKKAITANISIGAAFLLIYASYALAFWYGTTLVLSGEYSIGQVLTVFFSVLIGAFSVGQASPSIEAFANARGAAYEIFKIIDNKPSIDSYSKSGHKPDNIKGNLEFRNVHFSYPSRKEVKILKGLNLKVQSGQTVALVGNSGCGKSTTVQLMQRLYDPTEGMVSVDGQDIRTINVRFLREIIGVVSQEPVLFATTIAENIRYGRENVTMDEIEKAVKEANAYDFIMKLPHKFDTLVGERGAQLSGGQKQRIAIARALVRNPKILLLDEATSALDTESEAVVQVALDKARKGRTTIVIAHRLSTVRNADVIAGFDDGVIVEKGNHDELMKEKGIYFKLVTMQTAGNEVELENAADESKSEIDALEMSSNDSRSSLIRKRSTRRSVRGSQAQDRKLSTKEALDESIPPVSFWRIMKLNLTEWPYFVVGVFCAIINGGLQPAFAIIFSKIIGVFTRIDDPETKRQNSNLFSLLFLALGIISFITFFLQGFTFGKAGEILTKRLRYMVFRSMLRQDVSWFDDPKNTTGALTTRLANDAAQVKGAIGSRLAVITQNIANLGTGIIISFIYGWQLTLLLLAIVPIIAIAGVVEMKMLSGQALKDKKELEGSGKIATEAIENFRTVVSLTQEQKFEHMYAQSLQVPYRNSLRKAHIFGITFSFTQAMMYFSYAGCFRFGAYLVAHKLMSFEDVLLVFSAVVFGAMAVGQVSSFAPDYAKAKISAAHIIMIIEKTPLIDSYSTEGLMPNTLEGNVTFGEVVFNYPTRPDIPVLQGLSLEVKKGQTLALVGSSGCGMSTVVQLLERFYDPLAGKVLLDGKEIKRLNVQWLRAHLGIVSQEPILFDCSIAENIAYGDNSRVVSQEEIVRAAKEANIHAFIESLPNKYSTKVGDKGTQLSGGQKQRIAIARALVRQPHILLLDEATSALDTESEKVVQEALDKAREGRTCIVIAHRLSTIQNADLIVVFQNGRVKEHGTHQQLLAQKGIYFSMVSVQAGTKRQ
Experimental: as §1, §2

Wild-type Pgp [3] = biological target: T1, Wild-type Pgp; test: Recovery from the Vi-trapped post-hydrolysis state (UIC2 labeling); settings: data not shown
[4] = tested on: single Walker A mutant Pgps (K433M and K1076M); test: UIC2 mAb labeling of permeabilized cells, single mutants taken together; type: cell-based, human
Experimental: as §1, §2

[5] = biological target: double Walker A mutant Pgp (Homo sapiens, UniProt P08183, K1076M/K433M); settings: apical membrane, MDCK cells, 100 nM VBL-BPY
Chain of double Walker A mutant Pgp (P08183 whole entry K433M/K1076M): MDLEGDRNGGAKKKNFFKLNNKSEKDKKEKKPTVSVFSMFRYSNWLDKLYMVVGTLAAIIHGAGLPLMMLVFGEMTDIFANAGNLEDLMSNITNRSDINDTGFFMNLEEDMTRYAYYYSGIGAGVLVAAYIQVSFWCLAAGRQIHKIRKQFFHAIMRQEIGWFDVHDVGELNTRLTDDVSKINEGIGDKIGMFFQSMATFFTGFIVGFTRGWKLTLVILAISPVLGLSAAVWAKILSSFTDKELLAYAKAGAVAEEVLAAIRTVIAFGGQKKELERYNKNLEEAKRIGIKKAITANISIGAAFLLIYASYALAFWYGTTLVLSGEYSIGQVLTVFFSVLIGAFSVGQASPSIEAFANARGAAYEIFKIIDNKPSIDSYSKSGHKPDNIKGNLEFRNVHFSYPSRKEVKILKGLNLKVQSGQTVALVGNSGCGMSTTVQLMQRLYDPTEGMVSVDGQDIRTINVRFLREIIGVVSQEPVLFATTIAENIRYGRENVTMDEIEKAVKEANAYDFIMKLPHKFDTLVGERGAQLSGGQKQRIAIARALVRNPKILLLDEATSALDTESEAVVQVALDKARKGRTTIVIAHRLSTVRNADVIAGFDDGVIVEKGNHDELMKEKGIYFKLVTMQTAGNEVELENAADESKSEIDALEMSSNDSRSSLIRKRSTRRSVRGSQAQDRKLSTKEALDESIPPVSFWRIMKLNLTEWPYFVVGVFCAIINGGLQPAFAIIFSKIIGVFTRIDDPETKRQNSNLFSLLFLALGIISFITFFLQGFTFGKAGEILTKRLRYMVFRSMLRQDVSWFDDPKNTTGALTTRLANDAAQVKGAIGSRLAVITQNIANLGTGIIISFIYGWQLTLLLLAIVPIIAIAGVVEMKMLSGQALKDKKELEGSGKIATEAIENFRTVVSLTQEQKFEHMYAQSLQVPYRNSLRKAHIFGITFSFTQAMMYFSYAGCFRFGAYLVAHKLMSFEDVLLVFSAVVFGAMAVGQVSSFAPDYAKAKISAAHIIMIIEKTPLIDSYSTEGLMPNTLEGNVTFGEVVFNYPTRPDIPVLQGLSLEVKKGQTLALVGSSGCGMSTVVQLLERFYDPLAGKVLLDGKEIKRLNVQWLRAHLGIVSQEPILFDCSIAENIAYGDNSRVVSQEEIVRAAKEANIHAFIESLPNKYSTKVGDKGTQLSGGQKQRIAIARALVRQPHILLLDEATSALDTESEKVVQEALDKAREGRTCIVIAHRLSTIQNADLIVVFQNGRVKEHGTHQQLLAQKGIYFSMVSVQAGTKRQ
Experimental: The pattern and extent of co-localization in the sections were determined by using the cross-correlation scattergrams of the green and red pixels of the images. Co-localization indices were determined from 30–50 cells (in three independent experiments). The Pearson’s co-localization index (CI) provides a reliable estimate on the extent of fluorescence co-localization: CI values close to zero indicate no or a very low degree, while CI ≥ 0.5 reflects a high degree of co-localization, whereas the CI = 1 value would correspond to a full overlap between the two colours in each pixel of the image.

Wild-type Pgp [6] = biological target: T1, Wild-type Pgp; test: Nucleotide trapping kinetics (BeFx or Vi), UIC2-A647 labeling; settings: for accumulation in the trapped complex: both in WT and single Walker A mutant Pgp variants
Experimental: The transition state of Pgp was stabilized by the addition of ATP/Mg^2+ and vanadate (Vi) or BeFx at 37 °C. Permeabilized cells were incubated with 100 μM (for WT) or 500 μM (for K433M and K1076M) ATP/Mg^2+ and 0.5 mM Vi[70] or BeFx (200 μM BeSO4 and 1 mM NaF) in the presence or absence of substrates in PBS at 37 °C. 500 μl aliquots were taken at regular intervals and washed twice with 5 ml ice-cold PBS containing Vi or BeFx at the same concentrations that were applied previously during incubation. […] The UIC2-A647 fluorescence intensity of the samples (F) was plotted as a function of time (t). The t1/2 values representing the half-life of the UIC2-reactive Pgp conformation were calculated from an exponential fit of the data points according to the following equation:

[7] = tested on: single Walker A mutant Pgp (K433M, K1076M); test: Vinblastine-bodipy staining and 15D3-A647 co-localization in MDCK cells; type: cell-based, human; settings: 2 mM vanadate
Experimental: Cells were plated in 8-well Ibidi μ-Slide (Ibidi GmbH, Martinsried, Germany) two days before the experiments to obtain nearly confluent cultures. The samples were pre-incubated with the following agents: Na-azide (10 mM) and 2-deoxy D-glucose (8 mM), Vi (2 mM) or NEM (50 μM) for 30 min and then further incubated with 100 nM vinblastine-bodipy (VBL-BPY) and 30 μg/ml A647-conjugated 15D3 anti-Pgp antibody for another 30 min at 37 °C.
Cellular localization of Pgp and VBL-BPY staining was studied by a three-laser confocal laser scanning microscope (Olympus FluoView 1000 confocal microscope based on an inverted IX-81 stand with an UPlansAPo 60 × NA 1.35 oil immersion objective, Hamburg, Germany). […] Fluorescence intensities were detected in the spectral ranges of 500–530 nm, 555–655 nm and 655–755 nm, respectively. To assess the co-localization of VBL-BPY (green) and Alexa 647-conjugated 15D3 (red) fluorescence signals, single optical slices of apical membrane surfaces were recorded for double-labeled cells. The pattern and extent of co-localization in the sections were determined by using the cross-correlation scattergrams of the green and red pixels of the images. Co-localization indices were determined from 30–50 cells (in three independent experiments). […]

[8] = tested on: MDCK cells expressing single Walker A mutant Pgp; test: Cytotoxic effect of vinblastine, AlamarBlue assay; type: cell-based, canine; settings: 72 h, single mutants
Experimental: cells/well. 24 hours later vinblastine was added at different concentrations and the plates were
further incubated for 72 h at 37 °C. The cell viability was determined using the AlamarBlue
assay (Serotec, UK) measuring the 530/590 nm fluorescence intensity of the dye in an
automated microplate reader (BioTec Synergy HT, US). The fluorescence intensities of the
samples were normalized to the fluorescence of the vinblastine untreated control sample, and
plotted as a function of vinblastine concentration. The data points are means of eight parallel
samples (±SD) from a representative experiment out of three.

Wild-type Pgp [9] = biological target: T1, Wild-type Pgp
Experimental: Permeabilized cells trapped in the presence of ATP/Mg^2+ (100 μM for wild-type and 500 μM for single Walker A mutants) and 0.5 mM Vi were washed 3 times with ice-cold PBS and incubated in the presence or absence of ATP and/or substrates (verapamil, vinblastine) at 37 °C. 500 μl aliquots containing 2 × 10^5 cells were taken at regular intervals and washed twice with 5 ml PBS. […] At the end of incubations the samples were washed three times with ice-cold PBS and kept on ice until measurement in the flow cytometer.

Structure (SMILES): Nc1ncnc2c1ncn2[C@@H]1O[C@H](COP(=O)(O)OP(=O)(O)NP(=O)(O)O)[C@@H](O)[C@H]1O [AMP-PNP]
co-localization of VBL-BPY and Pgp (Wild-type Pgp [1]): significant decrease
Hill slope (K433M Pgp): 2.06 ± 0.29
KA (apparent nucleotide affinity) for competing UIC2 labeling (K433M Pgp): 3.40 ± 1.42 mM
Hill slope (Wild-type Pgp [2]; 37 °C, Mg2+): 1.75 ± 0.34
KA (apparent nucleotide affinity) for competing UIC2 labeling (Wild-type Pgp [2]; 37 °C, Mg2+, 10 μg/ml UIC2): 0.27 ± 0.14 mM
Hill slope (K1076M Pgp): 1.68 ± 0.23
KA (apparent nucleotide affinity) for competing UIC2 labeling (K1076M Pgp): 3.01 ± 0.92 mM

Structure (SMILES): Nc1ncnc2c1ncn2[C@@H]1O[C@H](COP(=O)(O)OP(=O)(O)OP(=O)(O)O)[C@@H](O)[C@H]1O [ATP]
Hill slope (K433M Pgp): 0.90 ± 0.32
KA (apparent nucleotide affinity) for competing UIC2 labeling (K433M Pgp): 2.08 ± 1.04 mM
effect on release of the tightly bound nucleotide from the Vi-trapped complex (Wild-type Pgp [3]): not influenced
fraction of UIC2 label persisting in saturating ATP ([4]; 10 μg/ml UIC2): ~ 50%
KA (apparent affinity for competing UIC2 labeling) ([4]; at [UIC2] about 5Kd;UIC2): ~2.5 mM
pKd ([4]; estimated with Eq. 7 of the kinetic model, read-out: Kd;ATP, dissociation constant of ATP from inward-facing Pgp): ~2.30
Km ([4]; from Eq. 3 of the kinetic model, read-out: predicted KM for ATP-hydrolysis and substrate transport in the absence of UIC2): ~700 µM
decrease in apparent affinity for ATP of the single mutants ([4]; relative to WT): ~ 10 fold
Hill slope (Wild-type Pgp [2]; 4 °C, Mg2+): 0.66 ± 0.17
KA (apparent nucleotide affinity) for competing UIC2 labeling (Wild-type Pgp [2]; 4 °C, Mg2+): 2.70 ± 1.83 mM
Hill slope (Wild-type Pgp [2]; 37 °C, Mg2+): 0.77 ± 0.20
KA (apparent nucleotide affinity) for competing UIC2 labeling (Wild-type Pgp [2]; 37 °C, Mg2+, 10 μg/ml UIC2): 0.25 ± 0.16 mM and 0.25 mM
Hill slope (Wild-type Pgp [2]; 37 °C, no Mg2+): 1.60 ± 0.22
KA (apparent nucleotide affinity) for competing UIC2 labeling (Wild-type Pgp [2]; 37 °C, no Mg2+): 1.92 ± 0.33 mM
pKd (Wild-type Pgp [2]; read-out: Kd;ATP, dissociation constant of ATP from inward-facing Pgp, estimated with Eq. 7 of the kinetic model from KA and T2/T1;min): ~3.15
Km (Wild-type Pgp [2]; read-out: predicted KM for ATP-hydrolysis and substrate transport in the absence of UIC2, from Eq. 3 of the kinetic model): ~60 µM
Hill slope (K1076M Pgp): 0.89 ± 0.33
KA (apparent nucleotide affinity) for competing UIC2 labeling (K1076M Pgp): 2.03 ± 0.91 mM

Structure (SMILES): CCC1(O)CC2CN(CCc3c([nH]c4ccccc34)C(C(=O)OC)(c3cc4c(cc3OC)N(C)C3C(O)(C(=O)OC)C(OC(=O)CCC5=[N+]6C(=Cc7c(C)cc(C)n7[B-]6(F)F)C=C5)C5(CC)C=CCN6CCC43C65)C2)C1 (stereo not drawn) [VBL-BPY, BODIPY FL vinblastine]
Pearson's cross-correlation coefficient between VBL-BPY and 15D3 anti-Pgp antibody signals [5]: ~ 0.8

Structure (SMILES): [O]=[V]([O-])([O-])[O-] [Vi, orthovanadate]
t1/2 of Vi trapping (Wild-type Pgp [6]; n = 6, Pgp variant not given): 235.2 ± 52.2 s
increase in the apparent affinity of the single mutants to ATP on addition of vanadate ([4]; ATP/Mg2+, 37 °C): 5–10 fold
effect of Vi on apparent affinity (Wild-type Pgp [2]; ATP hydrolysis prevented (Fig. 1b-d)): not influenced at all
effect of vanadate on apparent affinity (Wild-type Pgp [2]; hydrolysis conditions: 37 °C, ATP/Mg2+): increased the apparent affinity
effect on VBL-BPY binding to single Walker A mutants [7]: fully suppressed

accumulation in the trapped complex (Wild-type Pgp [6]): accelerated
Structure (SMILES): COC(=O)c1ccccc1-c1c2ccc(=N)cc-2oc2cc(N)ccc12 [rhodamine 123]

accumulation in the trapped complex (Wild-type Pgp [6]): accelerated
apparent affinity for ATP in the presence of substrate (Wild-type Pgp [6]; up to 200 μM vinblastine, BeFx, 20 min, 37 °C): did not change
effect on release of the tightly bound nucleotide from the Vi-trapped complex (Wild-type Pgp [9]): not influenced
Structure (SMILES): CC[C@]1(O)C[C@@H]2CN(CCc3c([nH]c4ccccc34)[C@@](C(=O)OC)(c3cc4c(cc3OC)N(C)[C@H]3[C@@](O)(C(=O)OC)[C@H](OC(C)=O)[C@]5(CC)C=CCN6CC[C@]43[C@@H]65)C2)C1 [vinblastine]
resistance against the cytotoxic effect of vinblastine [8]: conferred resistance
